The values that follow come from US20110294736A1, “COMPOUNDS AND METHODS FOR THE TREATMENT OF AUTOIMMUNE AND INFLAMMATORY DISEASE” (THE PROVOST, FELLOWS AND SCHOLARS OF THE HOLY AND UNDIVIDED …, priority 2008, published 2011).

In assay [1] the test system is experimental autoimmune encephalomyelitis (EAE) in C57BL/6 mice. In words: EAE induced with MOG35-55/CFA and pertussis toxin, clinical score and body weight. The class given is in vivo. The procedure: EAE was induced in C57BL/6 mice by subcutaneous (s.c) injection with 150 μg of MOG35-55 in CFA supplemented with 4 mg/ml H37 Ra M. tuberculosis on day 0. All mice were injected intra-peritoneally (i.p) with Pertussis toxin (PT) on days 0 and 2. One group of mice were untreated and the second group were given Tri-DAP (100 μg/mouse) on day 0 in MOG/CFA emulsion and again on days 1, 2 and every 2 days thereafter. Clinical scores were assessed daily and body weights were recorded. Disease severity was graded as follows: grade 0: normal, grade 1: limp tail, grade 2: wobbly gait; grade 3: hind limb weakness; grade 4: hind limb paralysis; grade 5: tetraparalysis/death. † indicates control mice were sacrificed due to severity of EAE disease.

Another assay deals with BMDC. As to the kind of experiment: EBI3 and IL-27p28 mRNA in BMDC pretreated with MAPK/MEK1/2 inhibitors, then TriDAP and LPS or CpG. Type of assay: cell-based, murine. On the procedure: BMDC (1×10^6) were pretreated with either the MAPK inhibitor, SB203580 ([…]) or the MEK1/2 inhibitor, U0126 ([…]) for 30 minutes prior to stimulation with TriDAP […] or medium alone. After 24 hours the cells were then stimulated with LPS (lipopolysaccharide) (100 ng/ml), CpG ([…]) or medium alone. EBI3 and IL-27p28 mRNA were evaluated by real time PCR normalized to 18S rRNA. Data are shown as fold induction over DC cultured in medium only (FIG. 9 (a) and FIG. 9 (b)).

In the next assay the test system is EAE in SJL mice. In words: SJL mouse relapsing-remitting EAE model (PLP/CFA, PT), clinical score. As to conditions: TriDAP 100 μg/mouse every 2 days from day 12, vs PBS, mean of 5-6 mice per group. The class given is in vivo. From the text:
EAE (experimental autoimmune encephalomyelitis) was induced in SJL mice by immunization with […] (PLP) in complete Freund's adjuvant (CFA) followed by Bordetella pertussis toxin (PT). SJL mice were developed by James Lambert at The Jackson Laboratory in 1955 from three different sources of Swiss Webster mice. The strain is characterized by its susceptibility to experimental autoimmune encephalomyelitis (EAE) for multiple sclerosis research, and therefore provides an improved model (over the MOG (myelin oligodendrocyte glycoprotein) model) for assessing the therapeutic potential of compounds. Mice were treated with PBS (control) or TriDAP (100 μg/mouse) every 2 days from day 12. Clinical scores were assessed daily and body weights were recorded. Disease severity was graded as follows: grade 0: normal, grade 1: limp tail, grade 2: wobbly gait; grade 3: hind limb weakness; grade 4: hind limb paralysis; grade 5: tetraparalysis/death. † indicates control mice were sacrificed due to severity of EAE disease.

For assay [2], the system named is PLP-specific IL-17 and IFN-γ. As to the kind of experiment: PLP-specific IL-17 and IFN-γ (ELISA) of restimulated lymph node or spleen cells, relapsing-remitting EAE model. The class given is in vivo. As to conditions: SJL mice, TriDAP 100 μg/mouse every 2 days from day 12, day 26, PLP 1-25 μg/ml. On the procedure:
EAE was induced in SJL mice by immunization with […] (PLP) in complete Freund's adjuvant (CFA) followed by pertussis toxin (PT). Mice were treated with PBS (control) or TriDAP (100 μg/mouse) every 2 days from day 12. Mice were sacrificed on day 26, and lymph node or spleen cells restimulated in vitro with PLP (1-25 μg/ml). After 3 days, IL-17 and IFNγ production in supernatants were quantified by ELISA.
For orientation: In an ELISA, binding on a coated surface is turned into a signal by an enzyme label.

Assay [3] has as its system antigen presenting cells (PECs) activating MOG-specific T cells. In words: IFN-γ of MOG-specific T cells cultured with irradiated PECs of treated mice as antigen presenting cells. The class given is in vivo. As to conditions: TriDAP 100 μg/mouse/day i.p. 5 days vs PBS; MOG 20 μg/ml; 72 hours. On the procedure: Mice were treated with either PBS or TriDAP (100 μg/mouse/day i.p.) for 5 days. Peritoneal exudate stimulator cells (PECs) were irradiated and used as antigen presenting cells (APC) for MOG-specific T cells. T cells from mice immunized with MOG (Myelin oligodendrocyte glycoprotein) and CFA (1×10^6/ml) were culture with PECs (1×10^6/ml) and MOG (20 μg/ml). Supernatants were collected after 72 hours and IFN-γ concentrations were quantified by ELISA.

Assay [4] deals with dendritic cells activating Th17 cells. As to the kind of experiment: IL-17 of CD4 T cells cultured with LPS-stimulated dendritic cells with and without TriDAP. Type of assay: cell-based, mice. The note with it: TriDAP 100 μg/ml; LPS 10 or 100 ng/ml; KLH 20 μg/ml; 72 hours. On the procedure: CD4 T cells from mice immunized with MOG and LPS, were cultured in vitro with dendritic cells stimulated with LPS (10 or 100 ng/ml) with and without TriDAP (100 μg/ml) in the presence of KLH (20 μg/ml). Supernatants were collected after 72 hours and IL-17 concentrations were quantified by ELISA. *P<0.05, ***P<0.001, with and without TriDAP.

The next assay relates to NF-κB. The note with it: higher than iE-DAP; previously shown; cited from earlier work.
Setting [5] is: U0126 (5 mM) 30 minutes before TriDAP, LPS 100 ng/ml after 24 hours.

Structures are written as SMILES.

Consider `C[C@H](N)C(=O)N[C@H](CCC(=O)N[C@@H](CCC[C@@H](N)C(=O)O)C(=O)O)C(=O)O` [Tri-DAP, L-alanyl-γ-D-glutamyl-meso-diaminopimelic acid], for which the weight loss result in assay [1] (C57BL/6 EAE mice, Tri-DAP 100 μg/mouse vs untreated control) is listed as “dramatic weight loss in the control mice when compared to the Tri-DAP treated mice”. Also, the “first clinical signs of EAE disease” value in assay [1] (C57BL/6 mice, Tri-DAP 100 μg/mouse day 0 in MOG/CFA emulsion, days 1, 2 and every 2 days, untreated mice 5-6 days) was determined as 11 days post induction. The “severity of EAE disease (clinical score)” value in assay [1] (C57BL/6 mice, Tri-DAP 100 μg/mouse, untreated peaked at 3.5-4 by day 12) is given as “lower than that observed in the untreated control mice”. For the same compound, in the assay with BMDC (setting [5]), the “Tri-DAP synergy with LPS for EBI3 gene expression under inhibition of ERK” value was “greatly enhances” and the “Tri-DAP synergy with LPS for IL-27p28 gene expression under inhibition of ERK” value is “greatly enhances”. In addition, the “Tri-DAP induced or Tri-DAP and TLR agonist induced IL-27 production on addition of an ERK inhibitor” value in the assay on BMDC (dendritic cells, ERK inhibitor added) is recorded as “significantly enhances”. Further, the clinical scores entry in the assay on EAE in SJL mice was “reduction”. In assay [2] (spleen and lymph node cells), the “PLP-specific IL-17 levels” value is listed as “on-going reduction”. For the same compound, the “PLP-specific IFN-gamma levels” value in assay [2] (spleen cells) is recorded as “on-going reduction”. The “IFN-gamma secreted by antigen-specific T cells stimulated with APC of treated mice” value in assay [3] is recorded as “less”. For the same compound, the “ability of dendritic cells to activate IL-17 production by CD4 T cells” value in assay [4] was “significant reduction”. For the same compound, the “ability to activate NF-κB relative to iE-DAP” value in the assay with NF-κB is on record as 3 fold.
